Measurements as given in patent publication US20240368145A1, “METHODS FOR TREATING CANCER” (IMMUNIC AG, priority 2021, published 2024).
pIC50: −log10 of the molar value. Values belong to the compound of their own block, whether it stands above or below them.

Legend:
Type in all cases: cell-based
[1] = system: 24 different hematological cell lines; experiment: Inhibition of viability in 24 different hematological cell lines (mean); conditions: mean over 24 different hematological cell lines; read-out: geometrical mean IC50, inhibition of viability
PL21 (AML) = experiment: Oncotest inhibition of viability, PL21; conditions: PL-21; AML cell line PL21; read-out: IC50 range
OCIAML2 (AML) = experiment: Oncotest inhibition of viability, OCIAML2; conditions: Homo sapiens, OCI-AML2; AML cell line OCIAML2; read-out: IC50 range
KG1 (AML) = experiment: Oncotest inhibition of viability, KG1; conditions: AML cell line KG1; read-out: IC50 range
RPMI8226 (MM) = experiment: Oncotest inhibition of viability, RPMI8226; conditions: Homo sapiens, RPMI-8226; MM cell line RPMI8226; read-out: IC50 range
MOLT4 (ALL) = experiment: Oncotest inhibition of viability, MOLT4; conditions: Homo sapiens, MOLT-4; ALL cell line MOLT4; read-out: IC50 range
U937 (NHL) = experiment: Oncotest inhibition of viability, U937; conditions: Homo sapiens, U-937; NHL cell line U937; read-out: IC50 range
IM9 (MM) = experiment: Oncotest inhibition of viability, IM9; conditions: MM cell line IM9; read-out: IC50 range
RAJI (NHL) = experiment: Oncotest inhibition of viability, RAJI; conditions: Homo sapiens; NHL cell line RAJI; read-out: IC50 range
K562 (CML) = experiment: Oncotest inhibition of viability, K562; conditions: Homo sapiens; CML cell line K562; read-out: IC50 range
JURLMK1 (CML) = experiment: Oncotest inhibition of viability, JURLMK1; conditions: CML cell line JURLMK1; read-out: IC50 range
JURKAT (ALL) = experiment: Oncotest inhibition of viability, JURKAT; conditions: Homo sapiens; ALL cell line JURKAT; read-out: IC50 range
L363 (MM) = experiment: Oncotest inhibition of viability, L363; conditions: Homo sapiens, L-363; MM cell line L363; read-out: IC50 range
LP1 (MM) = experiment: Oncotest inhibition of viability, LP1; conditions: MM cell line LP1; read-out: IC50 range
EM2 (CML) = experiment: Oncotest inhibition of viability, EM2; conditions: CML cell line EM2; read-out: IC50 range
CCRFCEM/VCR (ALL) = experiment: Oncotest inhibition of viability, CCRFCEM/VCR; conditions: Homo sapiens, CCRF-CEM; ALL cell line CCRFCEM/VCR; read-out: IC50 range
MYLA (NHL) = experiment: Oncotest inhibition of viability, MYLA; conditions: NHL cell line MYLA; read-out: IC50 range
NOMO1 (AML) = experiment: Oncotest inhibition of viability, NOMO1; conditions: Homo sapiens, NOMO-1; AML cell line NOMO1; read-out: IC50 range
KCL22 (CML) = experiment: Oncotest inhibition of viability, KCL22; conditions: Homo sapiens, KCL-22; CML cell line KCL22; read-out: IC50 range
HL60 (AML) = experiment: Oncotest inhibition of viability, HL60; conditions: Homo sapiens, HL-60; AML cell line HL60; read-out: IC50 range
HUT78 (NHL) = experiment: Oncotest inhibition of viability, HUT78; conditions: Homo sapiens; NHL cell line HUT78; read-out: IC50 range
NCIH929 (MM) = experiment: Oncotest inhibition of viability, NCIH929; conditions: Homo sapiens, NCI-H929; MM cell line NCIH929; read-out: IC50 range
MV411 (AML) = experiment: Oncotest inhibition of viability, MV411; conditions: Homo sapiens, MV4-11; AML cell line MV411; read-out: IC50 range
MEG01 (CML) = experiment: Oncotest inhibition of viability, MEG01; conditions: Homo sapiens, MEG-01; CML cell line MEG01; read-out: IC50 range
CCRFCEM (ALL) = experiment: Oncotest inhibition of viability, CCRFCEM; conditions: Homo sapiens, CCRF-CEM; ALL cell line CCRFCEM; read-out: IC50 range
ATAD2/ANCCA mRNA = experiment: Expression of AR target genes (qRT-PCR) in 22Rv1: ATAD2/ANCCA; conditions: 22Rv1, 1 μM, 48h; relative to vehicle control (DMSO)
Protocol: (§1) The prostate cancer cell line 22Rv1 was treated for 48h with 1 μM Example compound 1, 1/1, 2/1, 2/2, 2/3, 2/4, 2/5, 2/6, 2/7, 2/8, 2/9 and 2/10 and reference compounds SR2211 and XY018. RNA was extracted using the RNA isolation kit XS (Macherey-Nagel) and following the manufacture's manual. RNA quantity was measured with the Nanodrop before reverse transcription using Superscript II (Invitrogen #100004925). For the quantitative real-time PCR with SYBR-Green (Qiagen #204074), the following primers were used:
(§2) qRT-PCR was performed using SYBR-Green (Qiagen #204074) reagents in a PCR cycler (Gorbett Research) Rotor Gene RG3000 with the following program: denaturation for 5′ at 95° C.; 40 cycles of 20″ at 95° C. and 15″ at 60° C.″ and at the end of the last cycle, the melting temperature of the products was determined by gradually increasing from 60° C. to 99° C. CT values from all samples were normalized to reference (housekeeping) genes using the mean CT value of the GAPDH and YWHAZ (reference genes). Next the values are put relative to the untreated control (vehicle/DMSO).

KLK3 mRNA = experiment: Expression of AR target genes (qRT-PCR) in 22Rv1: KLK3; conditions: 22Rv1, 1 μM, 48h; relative to vehicle control (DMSO)
Protocol: as §1, §2

NKX3.1 mRNA = experiment: Expression of AR target genes (qRT-PCR) in 22Rv1: NKX3.1; conditions: Homo sapiens; 22Rv1, 1 μM, 48h; relative to vehicle control (DMSO)
Protocol: as §1, §2

FKBP5 mRNA = experiment: Expression of AR target genes (qRT-PCR) in 22Rv1: FKBP5; conditions: Homo sapiens; 22Rv1, 1 μM, 48h; relative to vehicle control (DMSO)
Protocol: as §1, §2

pIC50 (RPMI8226 (MM)): > 8.00
pIC50 (MOLT4 (ALL)): > 8.00
pIC50 (U937 (NHL)): 7.00 to 8.00
pIC50 (RAJI (NHL)): > 8.00
pIC50 (K562 (CML)): ≤ 6.00
pIC50 (JURKAT (ALL)): > 8.00
pIC50 (CCRFCEM/VCR (ALL)): 7.00 to 8.00
pIC50 (HL60 (AML)): > 8.00
pIC50 (MV411 (AML)): > 8.00
pIC50 (CCRFCEM (ALL)): 7.00 to 8.00
SMILES: COC(=O)c1c(-c2c(F)cccc2Cl)noc1-c1cnn(-c2cccc(Cl)c2)c1C(F)(F)F [Example 1, Methyl 3-(2-chloro-6-fluorophenyl)-5-(1-(3-chlorophenyl)-5-(trifluoromethyl)-1H-pyrazol-4-yl)isoxazole-4-carboxylate]
pIC50 [1]: > 7.60
pIC50 (PL21 (AML)): 6.00 to 7.00
pIC50 (OCIAML2 (AML)): 7.00 to 8.00
pIC50 (KG1 (AML)): > 8.00
pIC50 (IM9 (MM)): > 8.00
pIC50 (JURLMK1 (CML)): > 8.00
pIC50 (L363 (MM)): > 8.00
pIC50 (LP1 (MM)): 7.00 to 8.00
pIC50 (EM2 (CML)): 7.00 to 8.00
pIC50 (MYLA (NHL)): 6.00 to 7.00
pIC50 (NOMO1 (AML)): 6.00 to 7.00
pIC50 (KCL22 (CML)): 7.00 to 8.00
pIC50 (HUT78 (NHL)): > 8.00
pIC50 (NCIH929 (MM)): > 8.00
pIC50 (MEG01 (CML)): ≤ 6.00

SMILES: CC(C)(O)CCn1ncc(-c2onc(-c3c(F)cccc3Cl)c2-c2ncccn2)c1C(F)(F)F [2/8]
ATAD2/ANCCA mRNA expression (ATAD2/ANCCA mRNA): 0.817
KLK3 mRNA expression (KLK3 mRNA): 1.152
mrna remaining at 1 µM (NKX3.1 mRNA): 29.3%
mrna remaining at 1 µM (FKBP5 mRNA): 38.1%
